This is an account of results in US8026359B2, “Fungicidal heterocyclic amines” (E.I. du Pont de Nemours and Company, priority 2007, dated 2011).

What all share (format): in vivo
For assay [1], the system named is Puccinia recondita f. sp. tritici. The assay is described as follows: Test B: wheat leaf rust, preventive spray on wheat seedlings. The note with it: 200 ppm, 100 = 100% disease control, 0 = no control relative to controls. Put shortly: (§1)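 Test plants received run-off sprays of 200 ppm suspension (500 g/ha equivalent) or 40 ppm suspension. These suspensions were made by first dissolving each compound in acetone, then suspending it in an equal acetone/water mix carrying 250 ppm Trem 014.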

Assay [2] concerns Septoria nodorum. The assay is described as follows: Test C: wheat glume blotch, preventive spray on wheat seedlings. The note with it: 200 ppm, 100 = 100% disease control, 0 = no control relative to controls. In outline:
as §1

Assay [3] deals with Septoria tritici. Put plainly: Test D: wheat leaf blotch, preventive spray on wheat seedlings. As to conditions: 200 ppm, 100 = 100% disease control, 0 = no control relative to controls. Put shortly:
as §1

Assay [4] deals with Fusarium graminearum. Put plainly: whole plant or invertebrate. As to conditions: for Test E disease control rating: 200 ppm, 100 = 100% disease control, 0 = no control relative to controls.
Assay [5] relates to Botrytis cinerea. Put plainly: Test F: tomato Botrytis, preventive spray on tomato seedlings. The note with it: 200 ppm, 100 = 100% disease control, 0 = no control relative to controls. In outline:
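Preventive run-off spray onto tomato seedlings at 200 ppm (equivalent to 500 g/ha) or 40 ppm. Suspensions: compound predissolved in acetone at 3% of final volume, then taken up in acetone/purified water 50/50 containing 250 ppm Trem® 014 surfactant.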

For assay [6], the system named is Alternaria solani. The assay is described as follows: Test H: tomato early blight, preventive spray on seedlings. Put shortly:
as §1

In assay [7] the test system is Uncinula necator. The assay is described as follows: Test N: grape powdery mildew, preventive spray on grape seedlings. As to conditions: 100 ppm (100 g/ha, 1000 L/ha), inoculated the following day, 100 = 100% disease control, 0 = no control relative to controls. From the text:
(§2) General protocol for preparing test suspensions for Tests A-R: The test compounds were first dissolved in acetone in an amount equal to 3% of the final volume and then suspended at the desired concentration (in ppm) in acetone and purified water (50/50 mix) containing 250 ppm of the surfactant Trem® 014 (polyhydric alcohol esters). The resulting test suspensions were then used in tests A-R. In Tests A-M, compounds were sprayed as a 200 ppm test suspension (equivalent to a rate of 500 g/ha) or as a 40 ppm test suspension to the point of runoff on the test plants. In Tests N-R, compounds were sprayed as a 100 g/ha test suspension (equivalent to a rate of 100 ppm) on the test plants at an application volume of 1000 L/ha. The test suspension was sprayed on grape seedlings.

In assay [8] the test system is Venturia inaequalis. The assay is described as follows: Test O: apple scab, preventive spray on apple seedlings. As to conditions: 100 ppm (100 g/ha, 1000 L/ha), inoculated the following day, 100 = 100% disease control, 0 = no control relative to controls.
From the text: as §2, with “apple” for “grape”

The test system of assay [9] is Plasmopara viticola. The assay is described as follows: Test R: grape downy mildew, preventive spray on grape seedlings. The note with it: 100 ppm (100 g/ha, 1000 L/ha), inoculated the following day, 100 = 100% disease control, 0 = no control relative to controls.
From the text: as §2, with “seedlings. The following day the seedlings were inoculated with a spore suspension of Plasmopara viticola (the causal agent of grape downy mildew) and incubated in a saturated atmosphere at 20° C. for 24 h, then moved to a growth chamber at 20° C. for 7 days, after which time the test units were placed back into a saturated atmosphere at 20° C. for 24 h. Upon removal, disease ratings were made.” for “seedlings.”

For assay [10], the system named is Erysiphe graminis f. sp. tritici. The assay is described as follows: Test A: wheat powdery mildew, preventive spray on wheat seedlings. Put shortly:
as §1

The test system of assay [11] is Colletotrichum orbiculare. Put plainly: Test I: cucumber Colletotrichum anthracnose, preventive spray on cucumber seedlings. As to conditions: 100 = 100% disease control, 0 = no control relative to controls; for Test I disease control rating: 200 ppm. In outline: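 Preventive foliar spray to run-off on cucumber seedlings, at 200 ppm (stated as equal to 500 g/ha) or 40 ppm. Test suspensions were made in acetone/water 50/50 containing 250 ppm Trem 014, after first dissolving compound in acetone at 3% of final volume.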

Where [12] appears, read: 200 ppm, 100 = 100% disease control, 0 = no control relative to controls.

Marks after values point to notes of the source that are not given here.

With `COC[C@H](C)Nc1nccc(-c2ncnc(Nc3cccc(Br)c3)n2)n1` [Compound 11], the “Test B disease control rating” value in assay [1] was determined as 96%. Also, the “Test C disease control rating” value in assay [2] is given as 100%. For the same compound, the “Test D disease control rating” value in [3] was 0%. In assay [4], the “Test E disease control rating” value is 99%. Further, the “Test F disease control rating” value in assay [5] is given as 96%. In assay [6] (setting [12]), the “Test H disease control rating” value is reported as 98%. Moreover, the “Test N disease control rating” value in assay [7] was determined as 85%. Further, the “Test O disease control rating” value in assay [8] is listed as 92%. In addition, the “Test R disease control rating” value in assay [9] is recorded as 27%.

Regarding `COC[C@H](C)Nc1nccc(-c2ncnc(Nc3ccc(C)c(F)c3)n2)n1` [Compound 25], the “Test B disease control rating” value in [1] was 99%. Moreover, the “Test C disease control rating” value in assay [2] stood at 100%. Moreover, the “Test D disease control rating” value in assay [3] is recorded as 16%. Moreover, the “Test E disease control rating” value in assay [4] is on record as 99%. Besides, in assay [5], the “Test F disease control rating” value came to 63%. In assay [6] (setting [12]), the “Test H disease control rating” value is on record as 99%. Further, in assay [7], the “Test N disease control rating” value was 99%. Also, in [8], the “Test O disease control rating” value turned out to be 59%. Moreover, the “Test R disease control rating” value in [9] was determined as 86%.

Take `Clc1cccc(Cl)c1Nc1cc(-c2ccnc(NC3CCOCC3)n2)ccn1` [Compound 81]: the “Test A disease control rating” value in [10] (setting [12]) came to 95%. For the same compound, the “Test B disease control rating” value in assay [1] is reported as 100%. In addition, the “Test C disease control rating” value in assay [2] was determined as 99%. In addition, the “Test D disease control rating” value in [3] was 92%. Besides, the “Test E disease control rating” value in [4] stood at 97%. In addition, the “Test F disease control rating” value in assay [5] is listed as 99%. Moreover, the “Test I disease control rating” value in assay [11] stood at 91%. Besides, in [7], the “Test N disease control rating” value came out at 97%. Further, in assay [8], the “Test O disease control rating” value was determined as 69%. Also, in assay [9], the “Test R disease control rating” value is 97%.

For the compound `Fc1cccc(Nc2cc(-c3ccnc(NC4CCOCC4)n3)ccn2)c1` [Compound 67, 4-[2-[(3-fluorophenyl)amino]-4-pyridinyl]-N-(tetrahydro-2H-pyran-4-yl)-2-pyrimidinamine], the pest or weed control at 200 ppm in assay [10] (Blumeria graminis, 192 h, 200 ppm, 100 = 100% disease control, 0 = no control relative to controls, read-out: Test A disease control rating) is 17%; in assay [1] (Puccinia recondita, 192 h, read-out: Test B disease control rating) it was 97%; in assay [2] (Parastagonospora nodorum, 216 h, read-out: Test C disease control rating), 99%; in assay [3] (Zymoseptoria tritici, 504 h, read-out: Test D disease control rating) it was 52%; in [4] (Fusarium graminearum, in Triticum aestivum, 192 h, read-out: Test E disease control rating) it was 0%; in assay [5] (Botrytis cinerea, 120 h, read-out: Test F disease control rating) it was 95%. Further, the pest or weed control at 200 ppm in assay [11] (Colletotrichum orbiculare, 144 h, read-out: Test I disease control rating) is 79%. The “Test N disease control rating” value in [7] was 55%. For the same compound, the “Test O disease control rating” value in [8] came out at 73%. Also, the “Test R disease control rating” value in [9] stood at 94%.

`COC[C@H](C)Nc1nccc(-c2ncnc(Nc3ccc(F)c(Cl)c3)n2)n1` [Compound 23]: in assay [10] (40 ppm (marked *)), the “Test A disease control rating” value is 0* %. The “Test B disease control rating” value in [1] came to 98%. Further, the “Test C disease control rating” value in [2] was determined as 100%. The “Test D disease control rating” value in [3] turned out to be 13%. For the same compound, the “Test E disease control rating” value in assay [4] stood at 98%. In assay [5], the “Test F disease control rating” value is reported as 90%. Also, the “Test H disease control rating” value in [6] (40 ppm (marked *)) is 100* %. Further, the “Test I disease control rating” value in assay [11] is 99%. Also, in [7], the “Test N disease control rating” value is 61%. The “Test O disease control rating” value in assay [8] came out at 99%. Besides, the “Test R disease control rating” value in [9] was found to be 30%.

Regarding `COC[C@H](C)Nc1nccc(-c2ncnc(Nc3cccc(Cl)c3)n2)n1` [Compound 16], the “Test B disease control rating” value in assay [1] was found to be 99%. Also, the “Test C disease control rating” value in assay [2] is recorded as 99%. Also, the “Test D disease control rating” value in assay [3] came to 71%. Besides, the “Test E disease control rating” value in assay [4] turned out to be 99%. In assay [5], the “Test F disease control rating” value amounted to 96%. Also, the “Test H disease control rating” value in assay [6] (setting [12]) worked out at 98%. Also, the “Test I disease control rating” value in assay [11] was 97%. The “Test N disease control rating” value in [7] is given as 99%. In addition, the “Test O disease control rating” value in assay [8] is on record as 76%. Also, the “Test R disease control rating” value in assay [9] is 40%.

Turning to `Clc1cc(Cl)c(Nc2cc(-c3ccnc(NC4CCOCC4)n3)ccn2)c(Cl)c1` [Compound 99], the “Test A disease control rating” value in assay [10] (setting [12]) is listed as 0%. The “Test B disease control rating” value in [1] was 95%. The “Test C disease control rating” value in assay [2] is on record as 100%. Besides, in [3], the “Test D disease control rating” value turned out to be 30%. The “Test E disease control rating” value in assay [4] is 92%. Further, the “Test F disease control rating” value in assay [5] was 0%. Also, the “Test I disease control rating” value in assay [11] stood at 0%. Moreover, the “Test N disease control rating” value in [7] worked out at 30%. Further, in [8], the “Test O disease control rating” value is on record as 83%. For the same compound, the “Test R disease control rating” value in assay [9] was determined as 99%.

With `COC[C@H](C)Nc1nccc(-c2ncnc(Nc3cccc(C)c3)n2)n1` [Compound 19], the “Test B disease control rating” value in assay [1] is recorded as 97%. In addition, the “Test C disease control rating” value in assay [2] was 100%. Besides, the “Test D disease control rating” value in [3] worked out at 87%. For the same compound, in [4], the “Test E disease control rating” value is on record as 97%. Further, the “Test F disease control rating” value in assay [5] was determined as 99%. The “Test H disease control rating” value in assay [6] (setting [12]) came to 93%. Also, the “Test I disease control rating” value in assay [11] was 99%. Also, the “Test N disease control rating” value in assay [7] was determined as 95%. The “Test O disease control rating” value in assay [8] was 33%. Besides, in assay [9], the “Test R disease control rating” value was 73%.

As to `COC[C@H](C)Nc1nccc(-c2ncnc(Nc3ccc(C)c([N+](=O)[O-])c3)n2)n1` [Compound 26], the “Test B disease control rating” value in assay [1] was 98%. For the same compound, the “Test C disease control rating” value in assay [2] is given as 100%. In assay [3], the “Test D disease control rating” value stood at 2%. For the same compound, the “Test E disease control rating” value in assay [4] turned out to be 98%. In addition, the “Test F disease control rating” value in [5] is reported as 17%. Further, the “Test H disease control rating” value in [6] (setting [12]) amounted to 91%. In addition, the “Test N disease control rating” value in [7] stood at 69%. In assay [8], the “Test O disease control rating” value worked out at 96%. In addition, the “Test R disease control rating” value in assay [9] stood at 96%.
